From DBAASP
In brackets after ≈: the same amount, converted by molar mass.

Assays:
Test in all cases: ≥ marks a high value that may be exact or a test limit, other limits are often not marked, values filed in µg/mL are converted to µM
[1] = system: Nocardia asteroides 201118
Candida glabrata 090902 = system: Candida glabrata 090902
[2] = system: Enterococcus faecalis 981
[3] = system: Psychrobacter faecalis X29
[4] = system: Staphylococcus aureus ATCC 25923
[5] = system: Enterobacter cloacae CGMCC 1.57
[6] = system: Klebsiella pneumoniae 08040724
[7] = system: Enterococcus faecium 091299
[8] = system: Staphylococcus aureus ATCC 33591
[9] = system: Pseudomonas aeruginosa ATCC 27853
[10] = system: Staphylococcus epidermidis ATCC 35984
[11] = system: Cronobacter muytjensii ATCC 51329
[12] = system: Pseudomonas fluorescens NCIMB 9046
[13] = system: Cronobacter sakazakii DPC 6440
[14] = system: Klebsiella pneumoniae NCIMB 13218
[15] = system: Staphylococcus aureus RN4220
[16] = system: Salmonella enterica subsp. enterica serovar Typhimurium LT2
[17] = system: Cronobacter sakazakii DSM 4485
[18] = system: Cronobacter sakazakii ATCC BAA-894
[19] = system: Staphylococcus aureus RF122
[20] = system: Staphylococcus aureus Newman
[21] = system: Staphylococcus aureus SA113
[22] = system: Staphylococcus aureus NCTC 8325-4
[23] = system: Escherichia coli NCIMB 11843
[24] = system: Clavibacter michiganensis subsp. michiganensis DSM 46294
[25] = system: Xanthomonas vesicatoria DSM 50861
[26] = system: Pectobacterium carotovorum subsp. carotovorum DSM 30168
[27] = system: Pseudomonas syringae pv. syringae DSM 10604
[28] = system: Staphylococcus aureus 90857
[29] = system: Pseudomonas corrugata DSM 7228
[30] = system: Pseudomonas syringae pv. tomato DC3000
Escherichia coli 44102 = system: Escherichia coli 44102
[31] = system: Staphylococcus aureus 22401
Bacillus subtilis A47 = system: Bacillus subtilis A47

CC[C@H](C)[C@H](NC(=O)[C@@H](NC(=O)[C@H](CCCCN)NC(=O)CNC(=O)[C@H](CC(C)C)NC(=O)[C@@H](NC(=O)[C@@H]1CCCN1C(=O)[C@H](CC(C)C)NC(=O)[C@@H](N)Cc1ccccc1)C(C)C)C(C)C)C(=O)N[C@@H](CCCCN)C(=O)N[C@@H](CC(C)C)C(=O)N[C@H](C(=O)NCC(=O)NCC(=O)N[C@@H](CC(C)C)C(=O)N[C@@H](CC(C)C)C(N)=O)C(C)C [FLPVLGKVIKLVGGLL]
MIC [1]: 3.1 µM (≈ 5.16 µg/mL) | MIC (Candida glabrata 090902): ≥ 50 µM | MIC [2]: 3.1 µM (≈ 5.16 µg/mL) | MIC [3]: ≥ 50 µM | MIC [4]: 3.1 µM (≈ 5.16 µg/mL)

CC[C@H](C)[C@@H]1NC(=O)[C@H](CCCCN)NC(=O)[C@@H](NC(=O)[C@H](CCCCN)NC(=O)[C@H](CC(C)C)NC(=O)[C@H](CCCCN)NC(=O)[C@H](CC(=O)O)NC(=O)[C@H](CC(C)C)NC(=O)[C@H](CC(C)C)NC(=O)[C@@H](NC(=O)[C@@H](NC(=O)[C@H](C)NC(=O)[C@@H](NC(=O)[C@H](CC(N)=O)NC(=O)[C@H](CCCCN)NC(=O)[C@H](Cc2ccccc2)NC(=O)[C@@H](NC(=O)[C@H](CC(N)=O)NC(=O)[C@H](CCCCN)NC(=O)[C@H](C)NC(=O)[C@@H](NC(=O)[C@H](CC(=O)O)NC(=O)[C@H](CCSC)NC(=O)[C@H](Cc2ccccc2)NC(=O)CN)[C@@H](C)O)C(C)C)C(C)C)C(C)C)[C@@H](C)O)CSSC[C@@H](C(=O)O)NC(=O)CNC(=O)CNC(=O)[C@H](C)NC1=O [GFMDTAKNVFKNVAVTLLDKLKCKIAGGC]
MIC [1]: 6.3 µM (≈ 19.4 µg/mL) | MIC [5]: ≥ 50 µM | MIC [2]: ≥ 100 µM | MIC [6]: ≥ 100 µM | MIC [7]: 25 µM (≈ 77.1 µg/mL) | MIC [3]: 3.1 µM (≈ 9.56 µg/mL) | MIC [4]: 50 µM (≈ 154 µg/mL)

CC[C@H](C)[C@H](NC(=O)[C@H](CCCCN)NC(=O)[C@@H](NC(=O)[C@H](Cc1ccccc1)NC(=O)[C@H](C)NC(=O)[C@H](CCCCN)NC(=O)CNC(=O)[C@H](Cc1ccccc1)NC(=O)[C@H](CCCCN)NC(=O)[C@H](CCCCN)NC(=O)[C@H](C)NC(=O)[C@H](CCCCN)NC(=O)[C@H](CCCCN)NC(=O)[C@H](CC(C)C)NC(=O)[C@H](Cc1ccccc1)NC(=O)[C@H](CCCCN)NC(=O)CN)C(C)C)C(N)=O [GKFLKKAKKFGKAFVKI]
MIC [8]: ≥ 264 µM | MIC [9]: 0.73 µM (≈ 1.41 µg/mL) | MIC [10]: 5.84 µM (≈ 11.3 µg/mL) | MIC [4]: 132 µM (≈ 256 µg/mL)

CC[C@H](C)[C@H](N)C(=O)N[C@@H](CCCCN)C(=O)N[C@@H](Cc1cnc[nH]1)C(=O)N[C@@H](CCC(N)=O)C(=O)NCC(=O)N[C@@H](CC(C)C)C(=O)N1CCC[C@H]1C(=O)N[C@@H](CCC(N)=O)C(=O)N[C@@H](CCC(=O)O)C(=O)N[C@@H](CCC(=O)O)C(=O)O [IKHQGLPQEE]
MIC [11]: ≥ 2500 µM | MIC [12]: ≥ 2500 µM | MIC [13]: ≥ 2500 µM | MIC [14]: ≥ 2500 µM | MIC [15]: ≥ 2500 µM | MIC [16]: ≥ 2500 µM | MIC [17]: ≥ 2500 µM | MIC [18]: ≥ 2500 µM | MIC [19]: ≥ 2500 µM | MIC [20]: ≥ 2500 µM | MIC [21]: ≥ 2500 µM | MIC [22]: ≥ 2500 µM | MIC [23]: ≥ 2500 µM

CC[C@H](C)[C@H](NC(=O)[C@H](CCCCN)NC(=O)[C@@H](NC(=O)[C@H](Cc1ccccc1)NC(=O)[C@H](C)NC(=O)[C@H](CCCCN)NC(=O)CNC(=O)[C@H](Cc1ccccc1)NC(=O)[C@@H](N)CCCCN)C(C)C)C(=O)N[C@@H](CC(C)C)C(=O)N[C@@H](CCCCN)C(=O)N[C@@H](CCCCN)C(N)=O [KFGKAFVKILKK]
MIC [8]: ≥ 257 µM | MIC [9]: 16.1 µM (≈ 22.6 µg/mL) | MIC [10]: ≥ 64.3 µM | MIC [4]: 257 µM (≈ 362 µg/mL)

CC[C@H](C)[C@H](NC(=O)[C@H](CC(C)C)NC(=O)[C@H](CCCCN)NC(=O)[C@@H](NC(=O)[C@@H](NC(=O)[C@H](CC(C)C)NC(=O)[C@H](CCCCN)NC(=O)[C@H](CC(C)C)NC(=O)[C@@H](NC(=O)[C@H](CCCCN)NC(=O)[C@@H](NC(=O)[C@H](CC(C)C)NC(=O)[C@H](CCCCN)NC(=O)[C@H](CCCN=C(N)N)NC(=O)[C@H](CCCN=C(N)N)NC(=O)[C@@H](N)CCCCN)[C@@H](C)CC)[C@@H](C)CC)[C@@H](C)CC)[C@@H](C)CC)C(=O)N[C@@H](CCCN=C(N)N)C(=O)N[C@@H](CCCCN)C(=O)N[C@@H](CCCCN)C(=O)N[C@@H](CCCN=C(N)N)C(N)=O [KRRKLIKILKLIIKLIRKKR]
MIC [24]: 0.0391 µM (≈ 0.1 µg/mL) | MIC [25]: 0.0391 µM (≈ 0.1 µg/mL) | MIC [26]: 3.91 µM (≈ 10 µg/mL) | MIC [27]: 0.391 µM (≈ 1 µg/mL) | MIC [28]: 2 µM (≈ 5.11 µg/mL) | MIC [29]: 0.977 µM (≈ 2.5 µg/mL) | MIC [30]: 0.977 µM (≈ 2.5 µg/mL)

CC(C)C[C@H](NC(=O)CNC(=O)[C@H](Cc1ccccc1)NC(=O)[C@H](CC(C)C)NC(=O)[C@H](CCCN=C(N)N)NC(=O)[C@H](CC(C)C)NC(=O)[C@H](Cc1c[nH]c2ccccc12)NC(=O)CNC(=O)[C@H](CO)NC(=O)[C@H](CCCN=C(N)N)NC(=O)[C@H](CCCN=C(N)N)NC(=O)[C@H](CCC(=O)O)NC(=O)[C@H](CC(C)C)NC(=O)[C@H](C)NC(=O)[C@@H](N)CC(C)C)C(=O)N[C@@H](CCCCN)C(=O)N1CCC[C@H]1C(=O)N[C@@H](CCCN=C(N)N)C(=O)N[C@@H](CCCN=C(N)N)C(=O)N[C@@H](CCCCN)C(=O)N[C@@H](Cc1cnc[nH]1)C(=O)O [LALERRSGWLRLFGLKPRRKH]
MIC (Escherichia coli 44102): ≥ 50 µM | MIC [31]: 12.5 µM (≈ 32.4 µg/mL) | MIC (Bacillus subtilis A47): ≥ 50 µM

CC[C@H](C)[C@H](NC(=O)[C@H](CC(C)C)NC(=O)[C@H](CCCN=C(N)N)NC(=O)[C@H](CCCCN)NC(=O)[C@@H](NC(=O)[C@@H](NC(=O)[C@H](CCCCN)NC(=O)[C@@H](NC(=O)[C@H](CCCCN)NC(=O)[C@H](CCCCN)NC(=O)[C@H](CCCCN)NC(=O)[C@@H](N)CCCN=C(N)N)[C@@H](C)CC)[C@@H](C)CC)[C@@H](C)CC)C(N)=O [RKKKIKIIKRLI]
MIC [24]: 3.25 µM (≈ 5 µg/mL) | MIC [25]: 1.63 µM (≈ 2.5 µg/mL) | MIC [26]: 6.51 µM (≈ 9.99 µg/mL) | MIC [27]: 0.163 µM (≈ 0.25 µg/mL) | MIC [28]: ≥ 62.5 µM | MIC [29]: 1.63 µM (≈ 2.5 µg/mL) | MIC [30]: 6.51 µM (≈ 9.99 µg/mL)

CC(C)C[C@H](NC(=O)[C@H](CC(C)C)NC(=O)[C@H](CC(N)=O)NC(=O)[C@H](CCC(=O)O)NC(=O)[C@H](CC(N)=O)NC(=O)[C@H](C)NC(=O)[C@@H](N)C(C)C)C(=O)N[C@@H](CCCN=C(N)N)C(=O)O [VANENLLR]
MIC [11]: ≥ 1250 µM | MIC [12]: ≥ 2500 µM | MIC [13]: ≥ 1250 µM | MIC [14]: ≥ 2500 µM | MIC [15]: ≥ 2500 µM | MIC [16]: ≥ 2500 µM | MIC [17]: ≥ 1250 µM | MIC [18]: ≥ 2500 µM | MIC [19]: ≥ 2500 µM | MIC [20]: ≥ 2500 µM | MIC [21]: ≥ 2500 µM | MIC [22]: ≥ 1250 µM | MIC [23]: ≥ 2500 µM
